Reference: US8614201B2 (Janssen Pharmaceutica NV, priority 2009, dated 2013)

Biological target: Human TRPA1 (Homo sapiens, UniProt O75762)
Assay: Alternative TRPA1 Ca2+ fluorometry assay (hTRPA1/TREx-HEK293 cells, Fluo-4, FDSS 6000)
Assay type: cell-based
Parameters: expressed in transfected cells
Conditions: Fluo-4-AM, agonist 6,11-dihydro-5H-dibenzo[b,e]azepine-10-carboxylic acid methyl ester 25 nM, procedure used for Examples 184, 190 to 192, 194 to 316
Procedure: In alternative embodiments, the assay was performed using the following procedure for Examples 184, 190 to 192, and 194 to 316:
The human TRPA1 gene was cloned into the pT-Rex-Dest30 inducible vector and stably transfected in T-Rex™-293 cells (Invitrogen, Merelbeke, Belgium). This tetracycline inducible hTRPA1 expression system was used in order to prevent CA^2+ overload in the cultured cells due to sustained TRPA1 expression. hTRPA1/TREx-HEK293 cells (referred to as jTRPA1 cells in the following text) were maintained under standard sterile cell culture conditions. The culture medium for the jTRPA1-HEK cells was DMEN (Gibco BRL, Invitrogen, Merelbeke, Belgium) supplemented with 5 g/l gengticin (Gibco), 5 mL/l blasticidin (Invitorgen), 14.6 g/l L-Glutamine (200 mMl; Gibco), 5 g/l penicillin/streptomycin (5.10-6 IU/I, Gibco), 5.5 g/l pyruvic acid (Gibco) and 10% foetal calf serum (Hyclone, Logan Utah, USA).
For Ca^2+ fluorometry experiments, hTRPA1-HEK cells were resuspended in HBSS seeding medium: HBSS (with CaCl2 and MgCl2: Gibco) supplemented with 14.6 g/l L-Glutamine (200 mM; Gibco), 5 g/l penicillin/streptomycin (5.10-6 IU/l. Gibco), 5.5 g/l pyruvic acid (Gibco) and 10% foetal calf serum (heat inactivated for 30 minutes at 56° C.; Hyclone, Logan Utah, USA). The cells were seeded in poly-D-lysine-coated 384-well round bottom polypropylene plates (Costar Corning, Data Packaging, Cambridge Mass., USA) at 12000 cells/well. Fifty ng/ml tetracycline was added to induce the hTRPA1 expression 24 h before the experiment.
The cells were loaded with 5 mg/l Fluo-4-AM (Molecular Probes, Invitorgen, Merelbeke, Belgium) dissolved in HBSS seeding medium supplemented with 0.7 g/l Probenecid (Sigma) and incubated for 1 h at 37° C. and subsequently at 20° C. for 1 to 2 h. The fluorescence was measured in the FDSS 6000 imaging based plate reader (Hamamutsu Photonics K.K., Hamamutsu City, Japan). The excitation wavelength was 488 nm and the emission wavelength 540 nm. After a control period of 12 seconds the inventive compounds were added and the Ca^2+ signal was measured within 14 minutes after application. Finally, a TRPA1 agonist, 6,11-dihydro-5H-dibenzo[b,e]azepine-10-carboxylic acid methyl ester, was added at a final concentration of 25 nM. The emission ratio was calculated by dividing the emission signal (Em540) by the first EM540 signal of the control period to compensate for the background fluorescence. […] For intracellular Ca^2+ measurements, a compound stock solution (10 to 100 mM) was further diluted in DMSO in order to obtain a final 1% DMSO concentration in the extracellular solution.

Chain of Human TRPA1 (O75762 whole entry): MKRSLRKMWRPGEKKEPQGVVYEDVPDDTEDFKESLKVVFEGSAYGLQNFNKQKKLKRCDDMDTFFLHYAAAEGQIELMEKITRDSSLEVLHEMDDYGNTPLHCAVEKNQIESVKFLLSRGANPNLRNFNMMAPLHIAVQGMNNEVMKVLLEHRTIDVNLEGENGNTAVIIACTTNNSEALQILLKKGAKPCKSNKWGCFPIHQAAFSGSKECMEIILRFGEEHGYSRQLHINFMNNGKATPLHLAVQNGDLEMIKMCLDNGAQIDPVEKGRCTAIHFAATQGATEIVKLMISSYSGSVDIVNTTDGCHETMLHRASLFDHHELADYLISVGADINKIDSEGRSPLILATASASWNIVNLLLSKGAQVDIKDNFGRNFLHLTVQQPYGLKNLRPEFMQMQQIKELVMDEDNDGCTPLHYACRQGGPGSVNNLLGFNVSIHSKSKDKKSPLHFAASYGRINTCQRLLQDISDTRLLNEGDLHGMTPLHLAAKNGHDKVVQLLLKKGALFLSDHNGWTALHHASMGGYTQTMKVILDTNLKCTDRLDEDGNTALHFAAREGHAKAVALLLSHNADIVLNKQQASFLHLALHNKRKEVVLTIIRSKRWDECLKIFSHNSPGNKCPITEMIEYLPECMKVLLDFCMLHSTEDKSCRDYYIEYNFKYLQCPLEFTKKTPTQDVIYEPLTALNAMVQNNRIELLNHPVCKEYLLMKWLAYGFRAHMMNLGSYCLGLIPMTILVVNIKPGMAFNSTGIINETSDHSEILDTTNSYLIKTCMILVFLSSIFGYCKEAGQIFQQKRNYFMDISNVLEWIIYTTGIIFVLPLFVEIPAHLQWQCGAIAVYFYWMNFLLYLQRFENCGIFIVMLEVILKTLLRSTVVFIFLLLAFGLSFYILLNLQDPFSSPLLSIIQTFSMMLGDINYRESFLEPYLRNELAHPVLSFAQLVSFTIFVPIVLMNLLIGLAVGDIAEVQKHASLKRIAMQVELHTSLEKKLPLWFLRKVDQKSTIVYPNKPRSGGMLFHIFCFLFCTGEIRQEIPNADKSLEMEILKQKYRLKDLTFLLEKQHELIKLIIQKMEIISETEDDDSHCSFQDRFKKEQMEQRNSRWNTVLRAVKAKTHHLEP

Row | IC50 | SMILES
1 | 575 nM | CCOC(=O)C1CCN(c2nc(CNC(=O)[C@@H]3CCCN3S(=O)(=O)c3ccc(F)cc3)cc(-c3ccc(C(F)(F)F)cc3)n2)CC1 (racemic) [Example 194, 1-[4-({[1-(4-Fluoro-benzenesulfonyl)-pyrrolidine-2S-carbonyl]-amino}-methyl)-6-(4-trifluoromethyl-phenyl)-pyrimidin-2-yl]-piperidine-4(R,S)-carboxylic acid ethyl ester]
2 | ~33 nM | O=C(NCc1cc(-c2ccc(C(F)(F)F)cc2)nc(C(F)(F)F)n1)[C@@H]1CCCN1S(=O)(=O)c1ccc(F)cc1 [Example 184, 1-(4-Fluoro-benzenesulfonyl)-pyrrolidine-2S-carboxylic acid [2-trifluoromethyl-6-(4-trifluoromethyl-phenyl)-pyrimidin-4-ylmethyl]-amide]
3 | ~1950 nM | O=C(NCc1cc(-c2ccc(C(F)(F)F)cc2)nc(N2CCC[C@H]2CO)n1)[C@@H]1CCCN1S(=O)(=O)c1ccc(F)cc1 [Example 190, 1-(4-Fluoro-benzenesulfonyl)-pyrrolidine-2S-carboxylic acid [2-(2S-hydroxymethyl-pyrrolidin-1-yl)-6-(4-trifluoromethyl-phenyl)-pyrimidin-4-ylmethyl]-amide]
4 | 2140 nM | O=C(NCc1cc(-c2ccc(C(F)(F)F)cc2)nc(N[C@@H](CO)Cc2ccccc2)n1)[C@@H]1CCCN1S(=O)(=O)c1ccc(F)cc1 [Example 191, 1-(4-Fluoro-benzenesulfonyl)-pyrrolidine-2S-carboxylic acid [2-(1S-hydroxymethyl-2-phenyl-ethylamino)-6-(4-trifluoromethyl-phenyl)-pyrimidin-4-ylmethyl]-amide]
5 | ~588 nM | O=C(NCc1cc(-c2ccc(C(F)(F)F)cc2)nc(NC2CC2)n1)[C@@H]1CCCN1S(=O)(=O)c1ccc(F)cc1 [Example 192, 1-(4-Fluoro-benzenesulfonyl)-pyrrolidine-2S-carboxylic acid [2-cyclopropylamino-6-(4-trifluoromethyl-phenyl)-pyrimidin-4-ylmethyl]-amide]
6 | 617 nM | O=C(NCc1cc(-c2ccc(C(F)(F)F)cc2)nc(NCCc2ccc(Cl)cc2Cl)n1)[C@@H]1CCCN1S(=O)(=O)c1ccc(F)cc1 [Example 195, 1-(4-Fluoro-benzenesulfonyl)-pyrrolidine-2S-carboxylic acid [2-[2-(2,4-dichloro-phenyl)-ethylamino]-6-(4-trifluoromethyl-phenyl)-pyrimidin-4-ylmethyl]-amide]
7 | ~4790 nM | CN1CCCC1CCNc1nc(CNC(=O)[C@@H]2CCCN2S(=O)(=O)c2ccc(F)cc2)cc(-c2ccc(C(F)(F)F)cc2)n1 (stereo partly drawn) [Example 196, 1-(4-Fluoro-benzenesulfonyl)-pyrrolidine-2S-carboxylic acid [2-[2-(1-methyl-pyrrolidin-2(R,S)-yl)-ethylamino]-6-(4-trifluoromethyl-phenyl)-pyrimidin-4-ylmethyl]-amide]
8 | ~1150 nM | COc1ccc(CCNc2nc(CNC(=O)[C@@H]3CCCN3S(=O)(=O)c3ccc(F)cc3)cc(-c3ccc(C(F)(F)F)cc3)n2)cc1OC [Example 197, 1-(4-Fluoro-benzenesulfonyl)-pyrrolidine-2S-carboxylic acid [2-[2-(3,4-dimethoxy-phenyl)-ethylamino]-6-(4-trifluoromethyl-phenyl)-pyrimidin-4-ylmethyl]-amide]
9 | ~3020 nM | CN1CCCN(c2nc(CNC(=O)[C@@H]3CCCN3S(=O)(=O)c3ccc(F)cc3)cc(-c3ccc(C(F)(F)F)cc3)n2)CC1 [Example 198, 1-(4-Fluoro-benzenesulfonyl)-pyrrolidine-2S-carboxylic acid [2-(4-methyl-[1,4]diazepan-1-yl)-6-(4-trifluoromethyl-phenyl)-pyrimidin-4-ylmethyl]-amide]
10 | ~3310 nM | NS(=O)(=O)c1ccc(CCNc2nc(CNC(=O)[C@@H]3CCCN3S(=O)(=O)c3ccc(F)cc3)cc(-c3ccc(C(F)(F)F)cc3)n2)cc1 [Example 199, 1-(4-Fluoro-benzenesulfonyl)-pyrrolidine-2S-carboxylic acid [2-[2-(4-sulfamoyl-phenyl)-ethylamino]-6-(4-trifluoromethyl-phenyl)-pyrimidin-4-ylmethyl]-amide]
11 | 3310 nM | C#CCNc1nc(CNC(=O)[C@@H]2CCCN2S(=O)(=O)c2ccc(F)cc2)cc(-c2ccc3c(c2)OCO3)n1 [Example 200, 1-(4-Fluoro-benzenesulfonyl)-pyrrolidine-2S-carboxylic acid (6-benzo[1,3]dioxol-5-yl-2-prop-2-ynylamino-pyrimidin-4-ylmethyl)-amide]
12 | 8130 nM | O=C(NCc1cc(-c2ccc3c(c2)OCO3)nc(NCc2cccnc2)n1)[C@@H]1CCCN1S(=O)(=O)c1ccc(F)cc1 [Example 201, 1-(4-Fluoro-benzenesulfonyl)-pyrrolidine-2S-carboxylic acid {6-benzo[1,3]dioxol-5-yl-2-[(pyridin-3-ylmethyl)-amino]-pyrimidin-4-ylmethyl}-amide]
13 | ~2400 nM | CCCCNc1nc(CNC(=O)[C@@H]2CCCN2S(=O)(=O)c2ccc(F)cc2)cc(-c2ccc3c(c2)OCO3)n1 [Example 202, 1-(4-Fluoro-benzenesulfonyl)-pyrrolidine-2S-carboxylic acid (6-benzo[1,3]dioxol-5-yl-2-butylamino-pyrimidin-4-ylmethyl)-amide]
14 | ~6460 nM | O=C(NCc1cc(-c2ccc3c(c2)OCO3)nc(NCCc2ccccn2)n1)[C@@H]1CCCN1S(=O)(=O)c1ccc(F)cc1 [Example 203, 1-(4-Fluoro-benzenesulfonyl)-pyrrolidine-2S-carboxylic acid [6-benzo[1,3]dioxol-5-yl-2-(2-pyridin-2-yl-ethylamino)-pyrimidin-4-ylmethyl]-amide]
15 | ~2690 nM | O=C(NCc1cc(-c2ccc3c(c2)OCO3)nc(NC2CCCC2)n1)[C@@H]1CCCN1S(=O)(=O)c1ccc(F)cc1 [Example 204, 1-(4-Fluoro-benzenesulfonyl)-pyrrolidine-2S-carboxylic acid (6-benzo[1,3]dioxol-5-yl-2-cyclopentylamino-pyrimidin-4-ylmethyl)-amide]
16 | ~1780 nM | CCOC(=O)C1CCN(c2nc(CNC(=O)[C@@H]3CCCN3S(=O)(=O)c3ccc(F)cc3)cc(-c3ccc4c(c3)OCO4)n2)CC1 [Example 205, 1-[4-Benzo[1,3]dioxol-5-yl-6-({[1-(4-fluoro-benzenesulfonyl)-pyrrolidine-2S-carbonyl]-amino}-methyl)-pyrimidin-2-yl]-piperidine-4-carboxylic acid ethyl ester]
17 | 4470 nM | O=C(NCc1cc(-c2ccc3c(c2)OCO3)nc(N2CCN(c3ccccn3)CC2)n1)[C@@H]1CCCN1S(=O)(=O)c1ccc(F)cc1 [Example 206, 1-(4-Fluoro-benzenesulfonyl)-pyrrolidine-2S-carboxylic acid [6-benzo[1,3]dioxol-5-yl-2-(4-pyridin-2-yl-piperazin-1-yl)-pyrimidin-4-ylmethyl]-amide]
18 | 9120 nM | O=C(NCc1cc(-c2ccc3c(c2)OCO3)nc(N2CCOCC2)n1)[C@@H]1CCCN1S(=O)(=O)c1ccc(F)cc1 [Example 207, 1-(4-Fluoro-benzenesulfonyl)-pyrrolidine-2S-carboxylic acid (6-benzo[1,3]dioxol-5-yl-2-morpholin-4-yl-pyrimidin-4-ylmethyl)-amide]
19 | 2290 nM | O=C(NCc1cc(-c2ccc3c(c2)OCO3)nc(N2CCc3ccccc3C2)n1)[C@@H]1CCCN1S(=O)(=O)c1ccc(F)cc1 [Example 208, 1-(4-Fluoro-benzenesulfonyl)-pyrrolidine-2S-carboxylic acid [6-benzo[1,3]dioxol-5-yl-2-(3,4-dihydro-1H-isoquinolin-2-yl)-pyrimidin-4-ylmethyl]-amide]
20 | 1000 nM | C#CCNc1nc(CNC(=O)[C@@H]2CCCN2S(=O)(=O)c2ccc(F)cc2)cc(-c2ccc(Br)cc2)n1 [Example 209, 1-(4-Fluoro-benzenesulfonyl)-pyrrolidine-2S-carboxylic acid [6-(4-bromo-phenyl)-2-prop-2-ynylamino-pyrimidin-4-ylmethyl]-amide]
21 | 4570 nM | O=C(NCc1cc(-c2ccc(Br)cc2)nc(N[C@@H](CO)Cc2ccccc2)n1)[C@@H]1CCCN1S(=O)(=O)c1ccc(F)cc1 [Example 210, 1-(4-Fluoro-benzenesulfonyl)-pyrrolidine-2S-carboxylic acid [6-(4-bromo-phenyl)-2-(1S-hydroxymethyl-2-phenyl-ethylamino)-pyrimidin-4-ylmethyl]-amide]
